Results as given in patent publication US8778871B2 (Takeda Pharmaceutical Company Limited, priority 2004, dated 2014).
Starred links: 1 amine or outer side, 2 acyl side, 3 side chain; linkers in the order of their positions; H or OH if unused. Non-standard residues stand in square brackets, D forms with d. Residues, ends and D or L forms follow the SMILES beside them. *: point of attachment. X11 = NC(=O)C[C@@H](CN([C@@H](Cc1c[nH]c2ccccc12)C(=O)[*:2])[*:1])N[*:3]; X1 = NC(=O)C[C@@H](C(=O)[*:2])N(C[C@@H](N)Cc1ccc(O)cc1)[*:1]; X8 = O=C([C@H](Cc1ccc2ccccc2n1)N[*:1])[*:2]; Cyclohexanecarbonyl = O=C(C1CCCCC1)*; Arg(Me) = CNC(=N)NCCC[C@H](N)C(=O)O; 2Pal = N[C@@H](Cc1ccccn1)C(=O)O; 4Pal = N[C@@H](Cc1ccncc1)C(=O)O; d3Pal = N[C@H](Cc1cccnc1)C(=O)O; d4Pal = N[C@H](Cc1ccncc1)C(=O)O; Cha = N[C@@H](CC1CCCCC1)C(=O)O; azaGly = NNC(=O)O

Target: T1, hOT7T175 (Homo sapiens, UniProt Q969F8)
T1 construct: expressed in transfected cells
T1 sequence (Q969F8 whole entry L364H): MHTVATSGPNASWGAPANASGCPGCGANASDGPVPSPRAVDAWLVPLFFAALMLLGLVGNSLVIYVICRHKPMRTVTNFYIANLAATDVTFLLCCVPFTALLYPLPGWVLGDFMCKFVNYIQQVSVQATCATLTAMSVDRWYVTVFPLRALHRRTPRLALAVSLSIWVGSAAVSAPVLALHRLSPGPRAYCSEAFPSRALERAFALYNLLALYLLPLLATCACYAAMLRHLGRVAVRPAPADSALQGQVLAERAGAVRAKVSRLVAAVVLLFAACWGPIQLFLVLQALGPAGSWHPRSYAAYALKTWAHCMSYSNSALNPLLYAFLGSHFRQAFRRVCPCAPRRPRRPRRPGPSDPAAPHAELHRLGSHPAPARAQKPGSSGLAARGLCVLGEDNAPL
Test: Intracellular Ca ion level-increasing activity using FLIPR (180 seconds; specific activity to Metastin (1-54))
Format: cell-based
Details: hOT7T175/CHO, change in intracellular calcium ion level for 180 seconds, Tables 21-23
Method: In accordance with the method described in JPA 2000-312590, the intracellular Ca ion level-increasing activity was measured using FLIPR. […]
The intracellular Ca ion level-increasing activity of the synthetic peptide in hOT7T175/CHO was determined using FLIPR (Molecular Devices, Inc.).
hOT7T175/CHO was subcultured in DMEM supplemented with 10% dialyzed fetal bovine serum (hereinafter abbreviated as dFBS) and provided for the experiment (hereinafter abbreviated as 10% dFBS/DMEM). The hOT7T175/CHO was suspended in 10% dFBS-DMEM in 15×10^4 cells/ml. The suspension was inoculated on a 96-well plate for FLIPR (Black Plate Clear Bottom, Coster, Inc.) at 200 μl each (3.0×10^4 cells/200 μl), followed by incubation at 37° C. overnight in a 5% CO2 incubator. The cells thus incubated were used (hereinafter simply referred to as the cell plate). Then, 21 ml of HANKS/HBSS (9.8 g of HANKS', 0.35 g of sodium hydrogencarbonate, 20 ml of 1M HEPES; after adjusting the pH to 7.4 with 1N sodium hydroxide, the mixture was subjected to sterilization through a filter), 210 μl of […] Probenecid and 210 μl of fetal bovine serum (FBS) were mixed (HANKS/HBSS-Probenecid-FBS).
Furthermore, 2 vials of Fluo3-AM (50 μg/vial) were dissolved in 21 μL of dimethylsulfoxide and 21 μL of 20% Pluronic acid. The resulting solution was added to and mixed with 10 ml of HANKS/HBSS-Probenecid-FBS described above. After the culture medium was removed, the mixture was dispensed onto the cell plate in 100 μl each/well, followed by incubation at 37° C. for an hour in a 5% CO2 incubator (pigment loading). The peptide was dissolved in dimethylsulfoxide in 1×10^−3 M. The peptide solution was diluted with HANKS'/HBSS containing 2.5 mM Probenecid and 0.2% BSA. The dilution was transferred to a 96-well plate for FLIPR (V-Bottom plate, Coster, Inc.) (hereinafter referred to as a sample plate). After completion of the pigment loading onto the cell plate, the cell plate washed 4 times with wash buffer, which was obtained by adding 2.5 mM Probenecid to HANKS'/HBSS, using a plate washer to leave 100 μL of wash buffer after the washing. The cell plate and the sample plate were set in FLIPR and 0.05 ml of a sample from the sample plate was automatically transferred to the cell plate with the FLIPR device to promote the cell response. A change in intracellular calcium ion level for 180 seconds was measured with passage of time.

SMILES	intracellular Ca ion level-increasing activity [specific activity to Metastin (1-54)]
CNC(=N)NCCC[C@H](NC(=O)[C@H](CC(C)C)NC(=O)NNC(=O)[C@H](Cc1ccccc1)NC(=O)[C@H](CO)NC(=O)[C@H](CC(N)=O)NC(=O)C1CCCCC1)C(=O)N[C@@H](Cc1ccccc1)C(N)=O [Compound No. 278, Cyclohexanecarbonyl-Asn-Ser-Phe-AzaGly-Leu-Arg(Me)-Phe-NH2] (Cyclohexanecarbonyl-NSF[azaGly]L[Arg(Me)]F-NH2)	2
CNC(=N)NCCC[C@H](NC(=O)[C@H](CC(C)C)NC(=O)CNC(=O)[C@H](Cc1ccccn1)NC(=O)[C@H](CO)NC(=O)[C@H](CC(N)=O)NC(=O)[C@H](Cc1c[nH]c2ccccc12)NC(=O)[C@H](CC(N)=O)NC(=O)[C@H](N)Cc1ccc(O)cc1)C(=O)N[C@@H](Cc1ccccc1)C(N)=O [Compound No. 281, D-Tyr-Asn-Trp-Asn-Ser-Pya(2)-Gly-Leu-Arg(Me)-Phe-NH2] (H-[dY]NWNS[2Pal]GL[Arg(Me)]F-NH2)	½
CNC(=N)NCCC[C@H](NC(=O)[C@H](CC(C)C)NC(=O)NNC(=O)[C@H](Cc1ccccc1)NC(=O)[C@H](CO)NC(=O)[C@H](CC(N)=O)NC(=O)[C@@H](NC(=O)[C@@H](CC(N)=O)NC(=O)[C@H](N)Cc1ccc(O)cc1)[C@@H](C)O)C(=O)N[C@@H](Cc1ccccc1)C(N)=O [Compound No. 284, D-Tyr-D-Asn-Thr-Asn-Ser-Phe-AzaGly-Leu-Arg(Me)-Phe-NH2] (H-[dY][dN]TNSF[azaGly]L[Arg(Me)]F-NH2)	1
CNC(=N)NCCC[C@H](NC(=O)[C@H](CC(C)C)NC(=O)NNC(=O)[C@H](Cc1ccccc1)NC(=O)[C@H](CO)NC(=O)[C@H](CC(N)=O)NC(=O)[C@H](Cc1ccncc1)NC(=O)[C@H](CC(N)=O)NC(=O)[C@H](N)Cc1ccc(O)cc1)C(=O)N[C@@H](Cc1ccccc1)C(N)=O [Compound No. 286, D-Tyr-Asn-Pya(4)-Asn-Ser-Phe-AzaGly-Leu-Arg(Me)-Phe-NH2] (H-[dY]N[4Pal]NSF[azaGly]L[Arg(Me)]F-NH2)	2
CNC(=N)NCCC[C@H](NC(=O)[C@H](CC(C)C)NC(=O)NNC(=O)[C@H](Cc1ccccc1)NC(=O)[C@H](CO)NC(=O)[C@H](CC(N)=O)NC(=O)[C@H](Cc1c[nH]c2ccccc12)NC(=O)[C@@H](CO)NC(=O)[C@H](N)Cc1ccc(O)cc1)C(=O)N[C@@H](Cc1ccccc1)C(N)=O [Compound No. 287, D-Tyr-D-Ser-Trp-Asn-Ser-Phe-AzaGly-Leu-Arg(Me)-Phe-NH2] (H-[dY][dS]WNSF[azaGly]L[Arg(Me)]F-NH2)	2
CNC(=N)NCCC[C@H](NC(=O)[C@H](CC(C)C)NC(=O)NNC(=O)[C@H](Cc1ccccc1)NC(=O)[C@H](CO)NC(=O)[C@H](CC(N)=O)NC(=O)[C@H](Cc1c[nH]c2ccccc12)NC(=O)[C@@H](Cc1c[nH]cn1)NC(=O)[C@H](N)Cc1ccc(O)cc1)C(=O)N[C@@H](Cc1ccccc1)C(N)=O [Compound No. 288, D-Tyr-D-His-Trp-Asn-Ser-Phe-AzaGly-Leu-Arg(Me)-Phe-NH2] (H-[dY][dH]WNSF[azaGly]L[Arg(Me)]F-NH2)	1
CNC(=N)NCCC[C@H](NC(=O)[C@H](CC(C)C)NC(=O)NNC(=O)[C@H](Cc1ccccc1)NC(=O)[C@H](CO)NC(=O)[C@H](CC(N)=O)NC(=O)[C@H](Cc1c[nH]c2ccccc12)NC(=O)[C@H](N)Cc1cccnc1)C(=O)N[C@@H](Cc1ccccc1)C(N)=O [Compound No. 289, D-Pya(3)-Trp-Asn-Ser-Phe-AzaGly-Leu-Arg(Me)-Phe-NH2] (H-[d3Pal]WNSF[azaGly]L[Arg(Me)]F-NH2)	1
CNC(=N)NCCC[C@H](NC(=O)[C@H](CC(C)C)NC(=O)NNC(=O)[C@H](Cc1ccccc1)NC(=O)[C@H](CO)NC(=O)[C@H](CC(N)=O)NC(=O)[C@H](CC1CCCCC1)NC(=O)[C@@H](CC(N)=O)NC(=O)[C@H](N)Cc1cccnc1)C(=O)N[C@@H](Cc1ccccc1)C(N)=O [Compound No. 290, D-Pya(3)-D-Asn-Cha-Asn-Ser-Phe-AzaGly-Leu-Arg(Me)-Phe-NH2] (H-[d3Pal][dN][Cha]NSF[azaGly]L[Arg(Me)]F-NH2)	1
CNC(=N)NCCC[C@H](NC(=O)[C@H](CC(C)C)NC(=O)NNC(=O)[C@H](Cc1ccccc1)NC(=O)[C@H](CO)NC(=O)[C@H](CC(N)=O)NC(=O)[C@H](CC1CCCCC1)NC(=O)[C@@H](Cc1ccc(O)cc1)NC(=O)[C@H](N)Cc1cccnc1)C(=O)N[C@@H](Cc1ccccc1)C(N)=O [Compound No. 291, D-Pya(3)-D-Tyr-Cha-Asn-Ser-Phe-AzaGly-Leu-Arg(Me)-Phe-NH2] (H-[d3Pal][dY][Cha]NSF[azaGly]L[Arg(Me)]F-NH2)	2
CC(C)C[C@H](NC(=O)CNC(=O)[C@H](Cc1ccccc1)NC(=O)[C@H](CO)NC(=O)[C@H](CC(N)=O)NC(=O)[C@H](Cc1c[nH]c2ccccc12)NC[C@H](CC(N)=O)NC(=O)[C@@H](N)Cc1ccc(O)cc1)C(=O)N[C@@H](CCCNC(=N)N)C(=O)N[C@@H](Cc1ccccc1)C(N)=O [Compound No. 295] (H-[X11](Tyr)NSFGLRF-NH2)	1
CNC(=N)NCCC[C@H](NC(=O)[C@H](CC(C)C)NC(=O)NNC(=O)[C@H](Cc1ccccc1)NC(=O)[C@H](CO)NC(=O)[C@H](CC(N)=O)NC(=O)[C@H](Cc1c[nH]c2ccccc12)NC(=O)[C@H](CC(N)=O)NC[C@@H](N)Cc1ccc(O)cc1)C(=O)N[C@@H](Cc1ccccc1)C(N)=O [Compound No. 299, TyrΨ(CH2NH)Asn-Trp-Asn-Ser-Phe-AzaGly-Leu-Arg(Me)-Phe-NH2] (H-[X1]WNSF[azaGly]L[Arg(Me)]F-NH2)	5
CNC(=N)NCCC[C@H](NC(=O)[C@H](CC(C)C)NC(=O)NNC(=O)[C@H](Cc1ccccc1)NC(=O)[C@H](CO)NC(=O)[C@H](CC(N)=O)NC(=O)[C@@H](Cc1c[nH]c2ccccc12)NC(=O)[C@H](CC(N)=O)NC[C@@H](N)Cc1ccc(O)cc1)C(=O)N[C@@H](Cc1ccccc1)C(N)=O [Compound No. 300, TyrΨ(CH2NH)Asn-D-Trp-Asn-Ser-Phe-AzaGly-Leu-Arg(Me)-Phe-NH2] (H-[X1][dW]NSF[azaGly]L[Arg(Me)]F-NH2)	5
CNC(=N)NCCC[C@H](NC(=O)[C@H](CC(C)C)NC(=O)NNC(=O)[C@H](Cc1ccccc1)NC(=O)[C@H](CO)NC(=O)[C@H](CC(N)=O)NC(=O)[C@H](Cc1ccc2ccccc2n1)NC(=O)[C@H](CC(N)=O)NC(=O)[C@H](N)Cc1ccc(O)cc1)C(=O)N[C@@H](Cc1ccccc1)C(N)=O [Compound No. 301, D-Tyr-Asn-Ala(2-Qui)-Asn-Ser-Phe-AzaGly-Leu-Arg(Me)-Phe-NH2] (H-[dY]N[X8]NSF[azaGly]L[Arg(Me)]F-NH2)	1
CNC(=N)NCCC[C@H](NC(=O)[C@H](CC(C)C)NC(=O)NNC(=O)[C@H](Cc1ccccc1)NC(=O)[C@H](CO)NC(=O)[C@H](CC(N)=O)NC(=O)[C@@H](Cc1ccncc1)NC(=O)[C@H](CC(N)=O)NC(=O)[C@H](N)Cc1ccc(O)cc1)C(=O)N[C@@H](Cc1ccccc1)C(N)=O [Compound No. 302, D-Tyr-Asn-D-Pya(4)-Asn-Ser-Phe-AzaGly-Leu-Arg(Me)-Phe-NH2] (H-[dY]N[d4Pal]NSF[azaGly]L[Arg(Me)]F-NH2)	2
CNC(=N)NCCC[C@H](NC(=O)[C@H](CC(C)C)NC(=O)NNC(=O)[C@H](Cc1ccccc1)NC(=O)[C@H](CO)NC(=O)[C@H](CC(N)=O)NC(=O)[C@H](Cc1ccncc1)NC(=O)[C@@H](CC(N)=O)NC(=O)[C@@H](N)Cc1ccc(O)cc1)C(=O)N[C@@H](Cc1ccccc1)C(N)=O [Compound No. 304, Tyr-D-Asn-Pya(4)-Asn-Ser-Phe-AzaGly-Leu-Arg(Me)-Phe-NH2] (H-Y[dN][4Pal]NSF[azaGly]L[Arg(Me)]F-NH2)	3
CNC(=N)NCCC[C@H](NC(=O)[C@H](CC(C)C)NC(=O)NNC(=O)[C@H](Cc1ccccc1)NC(=O)[C@H](CO)NC(=O)[C@H](CC(N)=O)NC(=O)[C@H](CC1CCCCC1)NC(=O)[C@@H](CC(N)=O)NC(=O)[C@H](N)Cc1ccncc1)C(=O)N[C@@H](Cc1ccccc1)C(N)=O [Compound No. 306, D-Pya(4)-D-Asn-Cha-Asn-Ser-Phe-AzaGly-Leu-Arg(Me)-Phe-NH2] (H-[d4Pal][dN][Cha]NSF[azaGly]L[Arg(Me)]F-NH2)	2
